The target of assay [1] is human D2 receptor (short isoform) (Homo sapiens, UniProt P14416). Briefly: Receptor Binding Assay: displacement of 3H-spiperone, D2 receptor, for D2/D4 selectivity. Conditions: for D2/D4 (selectivity): ratio D2/D4, GH4 C1 cells with human D2 short vs HEK 298 cells with human D4.2, 3H-spiperone. The protocol:
(§1) The potency of the test compound to reduce ^3 H-spiperone binding directly correlated to its binding affinity for the receptor.
GH4 C1 (rat pituitary) cells stably transfected with the human D2 receptor (short isoform) were grown in CO2 independent media in roller bottles (1500 cm^2) for 10 days. 100 μM ZnSO4 was added to the cells (the D2 promoter being zinc inducible). After 16 hours, fresh media was added to allow the cells to recover for 24 hours. The cells were harvested using versene and then centrifuged in a Sorval centrifuge for 10 minutes, at 5000 rpm (GS3 rotor). Pellets were quickly frozen in liquid nitrogen and stored at -80° C. until used in the binding assays. When used in the assay, cells were thawed on ice for 20 minutes. […] The receptor protein concentration was determined using the Pierce BCA assay.
(§2) The tubes were vortexed and incubated at room temperature for 90 minutes. The binding reaction was stopped by filtering using a Brandell Cell Harvester. The samples were filtered under vacuum over glass fibre filters (Whatman GF/B) presoaked for 2 hours in 0.3% polyethylenimine (PEI) in 50 mM Tris buffer (pH7.4). The filters were then washed 3 times with 5 mL ice cold 50 mM Tris buffer (pH7.4). Individual filter disks were put in scintillation vials (Biovials, Bechman). Ready Protein Plus liquid scintillant (5 mL, Beckman) was added and the vials counted by liquid scintillation spectrophotometry (Beckman LSC 6500) after equilibrating for three hours at room temperature to determine total binding (BT).
This assay employed the same procedures as the non-specific binding assay for D4 with the exception that 2 μM (final conc.) of (-) sulpiride (Research Chemicals Inc.) was used in place of dopamine.
(§3) The incubation was started by the addition to 12×75 mm polypropylene tubes 500 μl (50 μg protein) membrane homogenate to a solution of 400 μl incubation buffer, 100 μl (0.25 final conc.) ^3 H-spiperone (90 Ci/mmol, Amersham, diluted in borosilicate glass vial to) and […] of test compound that was prepared from 1 mM stock dissolved in DMSO and stored at -20° C. in polypropylene cryogenic storage vials until dilution in incubation buffer in borosilicate glass vials. The tubes were vortexed and incubated at room temperature for 90 minutes at which time the binding reaction was stopped by filtering. The filters were washed and counted using the same procedure as in the total binding assay described above to give the displacement binding value (BD).
(§4) IC50 was determined from an inhibition response curve, logit-log plot of %B/BO vs concentration of test compound.
(§5) Ki was calculated by the Cheng and Prustoff transformation: […]
(§6) where [L] is the concentration of ^3 H-spiperone used in the assay and KD is the dissociation constant of ^3 H-spiperone determined independently under the same binding conditions.
For orientation: Loss of bound radioactivity is the signal in a displacement assay; it reports binding, not function.

The target in assay [2] is T1, human D4 receptor (D4.2 sub-type) (Homo sapiens, UniProt P21917, DEL265-296).
T1 construct: expressed in transfected cells; cell homogenate
T1 sequence (P21917 with tags, fused parts or gaps DEL265-296): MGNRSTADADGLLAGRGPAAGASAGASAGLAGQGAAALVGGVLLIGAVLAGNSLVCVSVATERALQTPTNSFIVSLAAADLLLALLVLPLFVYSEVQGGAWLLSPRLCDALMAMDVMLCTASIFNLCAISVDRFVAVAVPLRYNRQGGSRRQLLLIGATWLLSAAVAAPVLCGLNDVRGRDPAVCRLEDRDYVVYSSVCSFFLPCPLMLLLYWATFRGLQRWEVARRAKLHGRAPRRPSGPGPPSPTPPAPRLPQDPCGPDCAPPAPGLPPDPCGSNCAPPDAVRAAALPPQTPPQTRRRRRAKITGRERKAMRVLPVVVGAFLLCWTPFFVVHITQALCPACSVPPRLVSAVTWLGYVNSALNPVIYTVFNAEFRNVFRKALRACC
The assay is described as follows: Receptor Binding Assay: displacement of 3H-spiperone, D4 receptor. Particulars: for Ki: 3H-spiperone displacement, HEK 298 cells transfected with human D4.2, read-out: Ki (D4 affinity). The protocol:
as §1
The cells were then centrifuged in a Sorval centrifuge for 10 minutes, 5000 rpm (GS3 rotor) and the pellets quickly frozen in liquid nitrogen and stored at -80° C. until used in binding assay. When used in the assay, cells were thawed on ice for 20 minutes and then 10 mL of incubation buffer (50 mM Tris, 1 mM EDTA, 4 mM MgCl2, 5 mM KCl, 1.5 mM CaCl2, 120 mM NaCl, pH7.4) was added. […] Concentration of receptor protein was determined using the Pierce BCA assay.
as §2
The tubes were vortexed and incubated at room temperature for 90 minutes at which time the binding reaction was stopped by filtering. The filters were washed and counted using the same procedure as in the total binding assay described above to give the non-specific binding value (NSB).
as §3, §4, §5, §6

The target of another assay is D4 receptor. Particulars: background; both products approximately; cited from earlier work.
Another assay deals with D2 receptor. Conditions: background; both products; cited from earlier work.

We go through eight molecules from patent US5834459A, “Alkyl-substituted compounds having dopamine receptor affinity” (Allelix Biopharmaceuticals Inc., priority 1996, dated 1998).

human D2 receptor (short isoform), sequence (P14416 with tags, fused parts or gaps DEL242-270): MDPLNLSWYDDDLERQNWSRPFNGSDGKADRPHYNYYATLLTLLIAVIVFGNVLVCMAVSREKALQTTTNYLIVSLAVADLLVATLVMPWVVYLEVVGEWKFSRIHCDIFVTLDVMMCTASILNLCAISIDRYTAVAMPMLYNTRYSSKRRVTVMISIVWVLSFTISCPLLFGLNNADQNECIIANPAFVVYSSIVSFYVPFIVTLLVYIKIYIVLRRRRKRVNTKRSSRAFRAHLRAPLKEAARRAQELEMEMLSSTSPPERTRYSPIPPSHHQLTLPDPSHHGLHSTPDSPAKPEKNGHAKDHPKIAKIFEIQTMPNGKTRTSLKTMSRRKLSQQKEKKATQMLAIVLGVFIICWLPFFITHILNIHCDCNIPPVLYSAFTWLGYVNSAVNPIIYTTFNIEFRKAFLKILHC

For the molecule `CCCCCCN1CCN(C2=Nc3ccccc3Oc3c(Cl)cccc32)CC1` [4-chloro-11-(4-hexyl-1-piperazinyl)dibenz[b,f][1,4]oxazepine], in assay [1], the “D4 selectivity relative to the D2 receptor (in words)” value is given as “bind to the D4 receptor selectively relative to the D2 receptor”, the “D4 selectivity compared with clozapine (in words)” value is “better D4 selectivity than clozapine” and the “D2/D4 (selectivity)” value is 31.8. Moreover, the Ki (commonly the equilibrium dissociation constant of an inhibitor or competing ligand from its target) in assay [2] came to 32 nM.

`CCCCCCCCCN1CCN(C2=Nc3ccccc3Oc3c(Cl)cccc32)CC1` [4-chloro-11-(4-nonyl-1-piperazinyl)dibenz[b,f][1,4]oxazepine]: in assay [1], the “D4 selectivity relative to the D2 receptor (in words)” value is reported as “bind to the D4 receptor selectively relative to the D2 receptor”, the “D4 selectivity compared with clozapine (in words)” value is on record as “better D4 selectivity than clozapine” and the “D2/D4 (selectivity)” value is 3.9. Also, the Ki in assay [2] came to 229 nM.

Consider `CCCCCCCCCN1CCN(C2=Nc3cc(Cl)ccc3Oc3ccccc32)CC1` [8-chloro-11-(4-nonyl-1-piperazinyl)dibenz[b,f][1,4]oxazepine], for which, in assay [1], the “D4 selectivity relative to the D2 receptor (in words)” value was “bind to the D4 receptor selectively relative to the D2 receptor”; the “D4 selectivity compared with clozapine (in words)” value is “better D4 affinity and selectivity than clozapine”; the “D2/D4 (selectivity)” value was 30.0. In assay [2], the Ki is 18 nM; the “D4 affinity compared with clozapine (in words)” value was “better D4 affinity and selectivity than clozapine”.

On to `CCCCCCCN1CCN(C2=Nc3ccccc3Oc3ccccc32)CC1` [11-(4-heptyl-1-piperazinyl)dibenz[b,f][1,4]oxazepine], for which the “D4 selectivity relative to the D2 receptor (in words)” value in assay [1] is listed as “bind to the D4 receptor selectively relative to the D2 receptor”.

With `CCCCCCN1CCN(C2=Nc3ccccc3Oc3ccccc32)CC1` [11-(4-hexyl-1-piperazinyl)dibenz[b,f][1,4]oxazepine], in assay [1], the “D4 selectivity relative to the D2 receptor (in words)” value was “bind to the D4 receptor selectively relative to the D2 receptor”; the “D4 selectivity compared with clozapine (in words)” value is “better D4 affinity and selectivity than clozapine”; the “D2/D4 (selectivity)” value turned out to be 20.0. Also, in assay [2], the Ki was 22 nM; the “D4 affinity compared with clozapine (in words)” value was “better D4 affinity and selectivity than clozapine”.

Consider `CCCCCCCCCN1CCN(C2=Nc3ccccc3Oc3ccccc32)CC1` [11-(4-nonyl-1-piperazinyl)dibenz[b,f][1,4]oxazepine], for which, in assay [1], the “D4 selectivity relative to the D2 receptor (in words)” value was “bind to the D4 receptor selectively relative to the D2 receptor” and the “D2/D4 (selectivity)” value is on record as 3.9. The Ki in assay [2] came out at 109 nM.

Take `CCCCCCCCN1CCN(C2=Nc3ccccc3Oc3ccccc32)CC1` [11-(4-octyl-1-piperazinyl)dibenz[b,f][1,4]oxazepine]: in assay [1], the “D4 selectivity relative to the D2 receptor (in words)” value is on record as “bind to the D4 receptor selectively relative to the D2 receptor”.

With `CN1CCN(C2=Nc3cc(Cl)ccc3Oc3ccccc32)CC1` [isoloxapine], the Ki on D4 receptor is around 20 nM. The “preference for binding the D4 receptor relative to the D2 receptor” value in the assay with D2 receptor is given as “about 10 fold”.
